Measured values as given in patent US8664226B2, “Compound having 3-heteroarylpyrimidin-4-(3H)-one structure and pharmaceutical preparation containing same” (Kowa Company, Ltd., priority 2009, dated 2014).
Where two headings read alike, the source gives them in different places.

Key:
[1] = molecular target: T1, angiotensin II type 1 receptor (Oryctolagus cuniculus, UniProt P34976); assay: Angiotensin II antagonistic activity in isolated rabbit blood vessels; details: angiotensin II (10 nM)-induced contraction of rabbit thoracic aorta ring
T1 construct: By using a specimen of isolated rabbit blood vessels; from tissue; host or cells: rabbit thoracic aorta ring (New Zealand White, male)
T1 sequence (P34976 1-359): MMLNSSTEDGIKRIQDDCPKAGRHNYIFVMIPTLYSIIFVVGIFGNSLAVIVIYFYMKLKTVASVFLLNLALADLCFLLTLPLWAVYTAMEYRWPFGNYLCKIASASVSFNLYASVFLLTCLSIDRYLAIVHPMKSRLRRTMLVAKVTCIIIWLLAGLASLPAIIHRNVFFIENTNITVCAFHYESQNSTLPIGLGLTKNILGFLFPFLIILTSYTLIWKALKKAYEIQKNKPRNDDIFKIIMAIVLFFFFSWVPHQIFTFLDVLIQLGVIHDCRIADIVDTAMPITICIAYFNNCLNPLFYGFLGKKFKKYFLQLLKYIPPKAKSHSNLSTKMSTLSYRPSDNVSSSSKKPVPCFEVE
Method: By using a specimen of isolated rabbit blood vessels, antagonistic activity of the compounds of the invention against angiotensin II type 1 receptor was estimated from a dose-response curve of angiotensin II-induced blood vessel contraction.
During the measurement, the inside temperature of the magnus bath was maintained at 37° C. and the bath was continuously ventilated with a sufficient amount of mixed gas (95% O2 and 5% CO2). The angiotensin II-induced contraction was converted into a relative value (%) that is based on the angiotensin II (10 nM)-induced contraction in the absence of the compounds of each example. From the concentration-response curve obtained therefrom, 50% inhibition concentration (IC50 value) was calculated by using SAS Preclinical Package Ver5.0 (trade name, manufactured by SAS institute Japan Co., Tokyo, Japan), which is a statistical analysis program.

human PPARγ2 = molecular target: T2, human PPARγ2 (Homo sapiens, UniProt P37231); assay: PPARγ activation activity, Gal4 chimera luciferase transfection assay using COS7 cells; format: cell-based; details: for EC50: Gal4-human PPARγ2 LBD chimera, luciferase reporter, 16 hours; for Emax: COS-7, 16 h, maximum activity strength relative to the maximum activity of rosiglitazone, read-out: % MAX vs Rosiglitazone; for maximum activity compared with telmisartan: maximum PPARγ activity, telmisartan 30 to 50% of rosiglitazone under the same condition
T2 construct: the amino acids 182 to 505 of human PPARγ2; expressed in transfected cells; host or cells: COS7 cells
Method: The agonistic activity of the compounds of the invention on PPARγ was measured based on the transfection assay using COS7 cells (DS Pharma Biomedical Co., Ltd., Osaka, Japan), which are the cell line derived from the kidney of the African green monkey. COS7 cells were cultured under 5% CO2 concentration, and DMEM medium containing 10% fetal bovine serum, glutamic acid, and antibiotics was used as a medium.
As an expression vector, a chimera in which DNA binding domain of Gal4, which is a yeast transcription factor, and ligand binding domain of human PPAR^γ2 are fused, i.e., a fused product between the amino acids 1 to 147 of Gal4 transcription factor and the amino acids 182 to 505 of human PPARγ2, was used. Furthermore, as a reporter vector, a firefly luciferase containing five copies of Gal4 recognition sequence in the promoter region was used. Plasmid transfection to the cells was performed according to a method which uses jetPEI (trade name, manufactured by Funakoshi Co., Ltd., Tokyo, Japan). Furthermore, β-galactosidase expression vector was employed as an internal standard.
After the transfection of the cells, the medium was replaced with a DMEM medium (containing 1% serum) added with the compound, and the cells were further cultured for 16 hours. After that, the luciferase activity and β-galactosidase activity in the cell lysis solution were measured.
For the present test, dimethyl sulfoxide (DMSO) was used for dissolution and dilution of the test compounds, and during the cell treatment, the DMSO concentration in DMEM medium (containing 1% serum) was adjusted to 0.1%. As a positive compound, rosiglitazone (trade name, manufactured by ALEXIS Corporation, Switzerland) was used. […] The 50% effective concentration of the test compound (EC50, 50% effect concentration) was calculated by using SAS Preclinical Package Ver5.0 (trade name, manufactured by SAS institute Japan Co., Tokyo, Japan), which is a statistical analysis program.

T2 sequence (P37231 182-505): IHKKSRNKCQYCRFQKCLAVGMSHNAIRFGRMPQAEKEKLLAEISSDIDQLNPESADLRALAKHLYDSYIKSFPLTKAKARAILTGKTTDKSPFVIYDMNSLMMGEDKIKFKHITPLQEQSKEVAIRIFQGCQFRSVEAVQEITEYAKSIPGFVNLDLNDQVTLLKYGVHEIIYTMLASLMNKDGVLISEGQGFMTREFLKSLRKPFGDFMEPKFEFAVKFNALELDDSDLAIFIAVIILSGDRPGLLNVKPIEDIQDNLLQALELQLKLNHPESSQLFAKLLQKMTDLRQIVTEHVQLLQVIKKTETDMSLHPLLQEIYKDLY
T2 sequence (P04386 1-147 partner limits assumed): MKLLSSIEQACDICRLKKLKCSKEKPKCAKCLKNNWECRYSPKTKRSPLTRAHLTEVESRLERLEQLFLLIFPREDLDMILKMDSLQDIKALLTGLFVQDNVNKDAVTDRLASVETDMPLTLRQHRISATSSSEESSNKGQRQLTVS

| Structure (SMILES) | IC50 [1] [nM] | EC50 (human PPARγ2; COS7 cells, read-out: EC50) [nM] | Emax (human PPARγ2; COS7 cells) [%] | maximum activity compared with telmisartan (human PPARγ2) | EC50 (human PPARγ2; EC50, COS7 cells) [nM] |
| --- | --- | --- | --- | --- | --- |
| CCCCc1nc(C)n(-c2ncc(OCCc3ccc(CC)cn3)cn2)c(=O)c1Cc1ccc(-c2ccccc2-c2nnn[nH]2)cc1 [Example 36, 5-{[2′-(1H-tetrazol-5-yl)biphenyl-4-yl]methyl}-6-butyl-3-{5-[2-(5-ethylpyridin-2-yl)ethoxy]pyrimidin-2-yl}-2-methylpyrimidin-4 (3H)-one] | 627 | 3770 | – | – | – |
| CCCCc1nc(C)n(-c2ncc(C(F)(F)F)cc2Cl)c(=O)c1Cc1ccc(-c2ccccc2-c2nnn[nH]2)cc1 [Example 13, 5-{[2′-(1H-tetrazol-5-yl)biphenyl-4-yl]methyl}-6-butyl-3-[3-chloro-5-(trifluoromethyl)pyridin-2-yl]-2-methylpyrimidin-4(3H)-one] | 26 | 170 | – | – | – |
| CCCCc1nc(C)n(-c2ncc(OCc3ccccc3)cn2)c(=O)c1Cc1ccc(-c2ccccc2-c2nnn[nH]2)cc1 [Example 19, 5-{[2′-(1H-tetrazol-5-yl)biphenyl-4-yl]methyl}-3-[5-(benzyloxy)pyrimidin-2-yl]-6-butyl-2-methylpyrimidin-4 (3H)-one] | 396 | 2550 | – | – | – |
| CCCCc1nc(C)n(-c2ncc(OCCCC(=O)N(CC)CC)cn2)c(=O)c1Cc1ccc(-c2ccccc2-c2nnn[nH]2)cc1 [Example 52, 4-{2-{5-{[2′-(1H-tetrazol-5-yl)biphenyl-4-yl]methyl}-4-butyl-2-methyl-6-oxopyrimidin-1(6H)-yl}pyrimidin-5-yloxy}-N,N-diethylbutanamide] | 8.3 | 140 | – | – | – |
| CCCCc1nc(C)n(-c2ccnn2C)c(=O)c1Cc1ccc(-c2ccccc2-c2nnn[nH]2)cc1 [Example 64, 5-{[2′-(1H-tetrazol-5-yl)biphenyl-4-yl]methyl}-6-butyl-2-methyl-3-(1-methyl-1H-pyrazol-5-yl)pyrimidin-4 (3H)-one] | 652 | 3300 | – | – | – |
| CCCCc1nc(C)n(-c2ccon2)c(=O)c1Cc1ccc(-c2ccccc2-c2nnn[nH]2)cc1 [Example 63, 5-{[2′-(1H-tetrazol-5-yl)biphenyl-4-yl]methyl}-6-butyl-3-(isoxazol-3-yl)-2-methylpyrimidin-4 (3H)-one] | 193 | 3670 | – | – | – |
| CCCCc1nc(C)n(-c2cc(C(F)(F)F)ccn2)c(=O)c1Cc1ccc(-c2ccccc2-c2nnn[nH]2)cc1 [Example 10, 5-{[2′-(1H-tetrazol-5-yl)biphenyl-4-yl]methyl}-6-butyl-2-methyl-3-[4-(trifluoromethyl)pyridin-2-yl]pyrimidin-4(3H)-one] | 181 | 3890 | – | – | – |
| CCCCc1nc(C)n(-c2ncc(OCCCC(=O)NCC)cn2)c(=O)c1Cc1ccc(-c2ccccc2-c2nnn[nH]2)cc1 [Example 49, 4-{2-{5-{[2′-(1H-tetrazol-5-yl)biphenyl-4-yl]methyl}-4-butyl-2-methyl-6-oxopyrimidin-1(6H)-yl}pyrimidin-5-yloxy}-N-ethylbutanamide] | 12 | 70 | – | – | – |
| CCCCc1nc(C)n(-c2ncc(OCC)cn2)c(=O)c1Cc1ccc(-c2ccccc2-c2nnn[nH]2)cc1 [Example 21, 5-{[2′-(1H-tetrazol-5-yl)biphenyl-4-yl]methyl}-6-butyl-3-(5-ethoxypyrimidin-2-yl)-2-methylpyrimidin-4 (3H)-one] | 17 | 1590 | – | – | – |
| CCCCc1nc(C)n(-c2ncc(OCCCC(N)=O)cn2)c(=O)c1Cc1ccc(-c2ccccc2-c2nnn[nH]2)cc1 [Example 47, 4-{2-{5-{[2′-(1H-tetrazol-5-yl)biphenyl-4-yl]methyl}-4-butyl-2-methyl-6-oxopyrimidin-1(6H)-yl}pyrimidin-5-yloxy}butanamide] | 2.6 | 80 | – | – | – |
| CCCCc1nc(C)n(-c2ncc(OC(C)C)cn2)c(=O)c1Cc1ccc(-c2ccccc2-c2nnn[nH]2)cc1 [Example 23, 5-{[2′-(1H-tetrazol-5-yl)biphenyl-4-yl]methyl}-6-butyl-3-(5-isopropoxypyrimidin-2-yl)-2-methylpyrimidin-4 (3H)-one] | 22 | 890 | – | – | – |
| CCCCc1nc(C)n(-c2ncc(OCCCNS(=O)(=O)C(F)(F)F)cn2)c(=O)c1Cc1ccc(-c2ccccc2-c2nnn[nH]2)cc1 [Example 58, N-{3-{2-{5-{[2′-(1H-tetrazol-5-yl)biphenyl-4-yl]methyl}-4-butyl-2-methyl-6-oxopyrimidin-1 (6H)-yl}pyrimidin-5-yloxy}propyl}-1,1,1-trifluoromethane sulfonamide] | 352 | 1910 | – | – | – |
| CCCc1nc2c(C)cc(-c3nc4ccccc4n3C)cc2n1Cc1ccc(-c2ccccc2C(=O)O)cc1 [telmisartan, reference compound] | – | – | 30 to 50 | – | 1000 to 5000 |

The next lines start with results.

| IC50 [1] [nM] | EC50 (human PPARγ2; COS7 cells, read-out: EC50) [nM] | Emax (human PPARγ2; COS7 cells) [%] | Structure (SMILES) | maximum activity compared with telmisartan (human PPARγ2) | EC50 (human PPARγ2; EC50, COS7 cells) [nM] |
| --- | --- | --- | --- | --- | --- |
| 432 | 820 | 55.5 | CCCCc1nc(C)n(-c2ccc3ccccc3n2)c(=O)c1Cc1ccc(-c2ccccc2-c2nnn[nH]2)cc1 [Example 66, 5-{[2′-(1H-tetrazol-5-yl)biphenyl-4-yl]methyl}-6-butyl-2-methyl-3-(quinolin-2-yl)pyrimidin-4 (3H)-one] | the same or greater than that of telmisartan | – |
| 102 | 3660 | 27.6 | CCCCc1nc(C)n(-c2ccc(F)cn2)c(=O)c1Cc1ccc(-c2ccccc2-c2nnn[nH]2)cc1 [Example 5, 5-{[2′-(1H-tetrazol-5-yl)biphenyl-4-yl]methyl}-6-butyl-3-(5-fluoropyridin-2-yl)-2-methylpyrimidin-4(3H)-one] | – | – |
| 395 | 880 | 27.7 | CCCCc1nc(C)n(-c2cccc(Br)n2)c(=O)c1Cc1ccc(-c2ccccc2-c2nnn[nH]2)cc1 [Example 8, 5-{[2′-(1H-tetrazol-5-yl)biphenyl-4-yl]methyl}-3-(6-bromopyridin-2-yl)-6-butyl-2-methylpyrimidin-4(3H)-one] | – | – |
| < 10000 | 740 | – | CCCCc1nc(C)n(-c2nccc3ccccc23)c(=O)c1Cc1ccc(-c2ccccc2-c2nnn[nH]2)cc1 [Example 67, 5-{[2′-(1H-tetrazol-5-yl)biphenyl-4-yl]methyl}-6-butyl-3-(isoquinolin-1-yl)-2-methylpyrimidin-4 (3H)-one] | – | – |
| 223 | 2610 | – | CCCCc1nc(C)n(-c2cc3ccccc3cn2)c(=O)c1Cc1ccc(-c2ccccc2-c2nnn[nH]2)cc1 [Example 68, 5-{[2′-(1H-tetrazol-5-yl)biphenyl-4-yl]methyl}-6-butyl-3-(isoquinolin-3-yl)-2-methylpyrimidin-4 (3H)-one] | – | – |
| 84 | 4150 | 24.1 | CCCCc1nc(C)n(-c2ccc(C)cn2)c(=O)c1Cc1ccc(-c2ccccc2-c2nnn[nH]2)cc1 [Example 2, 5-{[2′-(1H-tetrazol-5-yl)biphenyl-4-yl]methyl}-6-butyl-2-methyl-3-(5-methylpyridin-2-yl)pyrimidin-4(3H)-one] | – | – |
| – | 690 | 39.7 | CCCCc1nc(C)n(-c2nc3ccccc3s2)c(=O)c1Cc1ccc(-c2ccccc2-c2nnn[nH]2)cc1 [Example 70, 5-{[2′-(1H-tetrazol-5-yl)biphenyl-4-yl]methyl}-3-(benzothiazol-2-v1)-6-butyl-2-methylpyrimidin-4 (3H)-one] | the same or greater than that of telmisartan | – |
